Data reported in EP1263444B1, “USE OF XANTHINE DERIVATIVES FOR PREPARING A MEDICINE FOR PREVENTING AND TREATING OSTEOPOROSIS” (Aventis Pharma S.A., priority 2000, dated 2001).

Assays:
Format in all cases: in vivo
rate ovariectomisée [1] = assay: Uterus weight in the ovariectomised rat model; details: 10 mg/kg po, 4 weeks, weight increase in % of uterus weight of OVX animals receiving solvent only
Excerpt: (§1) L'impact osseux des dérivés de xanthine selon l'invention a été évalué sur un modèle d'ostéopénie, la rate ovariectomisée à l'âge de 3 mois, afin de déterminer son effet sur la masse osseuse, et sur l'activité de formation et de résorption osseuse sur ce modèle. Les animaux sont traités en préventif.
(§2) Sur ce modèle d'ostéopénie l'effet d'un dérivé xanthine est comparé à celui de la PTH • Produit à tester : Le [1-(3-phénylxanthin-1-yl)méthyl] diméthylphosphine oxide • véhicule(s) : méthylcellulose 0,5 % ou sérum physiologique • dose(s) : 10 mg/kg pour le produit. la PTH est administrée à la dose de 10 et 25 µg/kg/j par voie sous cutanée • nombre d'administrations : une fois/jour; 5 jours/semaine pendant 4 semaines • voie d'administration : voie orale pour le produit. La PTH est administrée par voie sous cutanée • volume : 1 ml/kg p o et s c • délai entre l'injection et le sacrifice : 24 heures • nombre d'administrations : 20.
(§3) Des rats femelles âgées de 3 mois et pesant environ 250-300 g sont ovariectomisées sous anesthésie à l'Imalgène 1000, à la dose de 100 mg/kg par voie intrapéritonéale (i.p) et sous un volume de 1 ml/kg. Ils reçoivent également du Nembutal (3 mg/kg i.p. sous un volume de 0,3 ml/kg). Les animaux sont répartis en groupes de 8 rats.
(§4) Après incision latérale, les plans cutanés et musculaires sont sectionnés. L'exérèse de chaque ovaire se fait après ligature de l'oviducte. […]

rate ovariectomisée [2] = assay: Serum cholesterol level in the ovariectomised rat model; details: 10 mg/kg po, 4 weeks, decrease of serum cholesterol in % versus OVX animals receiving solvent only
Excerpt: as §1, §2, §3, §4

rate ovariectomisée [3] = assay: Bone mineral density (DEXA) of the left tibia in the ovariectomised rat osteopenia model, preventive treatment; details: 10 mg/kg po, once daily, 5 days/week for 4 weeks; (BMD treated - BMD OVX)/(BMD SHAM - BMD OVX) x 100
Excerpt: as §1, §2, §3, §4

## CP(C)(=O)Cn1c(=O)c2[nH]cnc2n(-c2ccccc2)c1=O [Dérivé xanthine, [1-(3-phénylxanthin-1-yl)méthyl] diméthylphosphine oxide]
Rate ovariectomisée [1]
  UTERUS Poids %: 10%
Rate ovariectomisée [1]; listed as Ce produit
  UTERUS Poids %: aucune activité utérotrophique
Rate ovariectomisée [2]
  Cholestérol %: Pas d'effet
Rate ovariectomisée [2]; listed as Ce produit
  Cholestérol %: pas d'effet
Rate ovariectomisée [3]
  OS TIBIA Densité %: 40%
